This assay concerns MDA-MB-468 breast. The assay can be described thus: NCI-60 cell line screen, 48 h.

Each structure is given as a SMILES string. Where “and” joins values, the source holds several entries; their conditions need not be identical. Equal values may be shown once.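 Method: 48-hour compound exposure of cells in 96-well plates, five concentrations, linear interpolation of endpoints. GI50 marks 50% less growth. TGI denotes the concentration required for complete inhibition of growth.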 Where a SMILES comes first, the peptide text is derived from it. [ ]: non-standard residue; d: D form. Orn = NCCC[CH](N)C(=O)O

This passage reports GI50 and TGI results from PubChem BioAssay (NCI).

For the molecule `COc1ccc(/C=C2\CCCC3=C2N=C2SC=NN2C3c2ccc(OC)c(OC)c2)cc1OC` (configuration not stated), the GI50 is 2.18 µM and the TGI is 25.3 µM.
The like results for `COc1ccc2c(c1)N(CCO)C1=C(C(=O)OC1)C2c1cccc(Br)c1` (configuration not stated) were, in that order, 0.0287 µM and 0.128 µM.
For the molecule `O=C(Nc1cccc2ccccc12)c1cc2ccccc2cc1O`, the GI50 was 2.45 µM and the TGI was 6.33 µM.
In the same order, the values of `CCOC(=O)C1=C(N)Oc2cc(OC)ccc2C1c1ccc(F)c(F)c1` (configuration not stated) are 0.352 µM and 4 µM.
In the same order, the values of `CCOC(=O)c1c2c(n3cccc(F)c13)C(=O)c1ncccc1C2=O` are 2.87 µM and 9.68 µM.
The like results for `Cc1ccc(S(=O)(=O)N2C/C(=C\c3cc(F)cc(F)c3)C(=O)/C(=C/c3cc(F)cc(F)c3)C2)cc1` were, in that order, 0.385 µM and 1.76 µM.
`C#CCOc1c(OC)cc(C(=O)/C(C)=C/c2cccc(N=[N+]=[N-])c2)cc1OC`: the GI50 is 0.0855 µM and the TGI is above 100 µM.
Consider `COc1cc([C@@H]2c3cc4c(cc3[C@H](O)[C@H]3COC(=O)[C@@H]23)OCO4)cc(OC)c1OC`, for which the GI50 was 0.278 µM and 0.0548 µM; the TGI was 2.87 µM and 0.453 µM.
As for `N=C(N)c1ccc(-c2ccc(-c3ccco3)o2)cc1F`, the GI50 was 1.57 µM and the TGI turned out to be 3.41 µM.
The like results for `Fc1ccc(-c2cc3nc(C(Cl)Cl)nc(-c4ccccc4)n3n2)cc1` were, in that order, 0.269 µM and 0.869 µM.
In the case of `COc1cccc(-c2cc(NCc3ccc4c(c3)OCO4)nc(N)n2)c1`, the GI50 is 0.22 µM and the TGI was 15.1 µM.
For the molecule `O=C(O)c1cn(C2CC2)c2cc(N3CCN(C(=O)Nc4nc(-c5ccc(Cl)cc5)cs4)CC3)c(F)cc2c1=O`, the GI50 was 1.75 µM and the TGI was 8.15 µM.
In the same order, the values of `C#Cc1cc(OC)c(C(=O)Nc2ccc(F)cc2C(=O)Nc2cccc(S(=O)(=O)C(F)(F)F)c2)cn1` are 1.51 µM and 3.99 µM.
In the same order, the values of `COc1ccc(/C=C/C(=O)c2ccc(NC(=O)CSc3nnc(-c4cc(OC)c(OC)c(OC)c4)o3)cc2)cc1` are 2.1 µM and 5.02 µM.
The like results for `N=C1N=Nc2nc(C3(c4nc5n(c4O)C(=N)N=N5)Cc4ccccc4C3=O)c(O)n21` (configuration not stated) were, in that order, 49.8 µM and above 100 µM.
With `CCN(CC)CCCC(C)Nc1ccnc2cc(Cl)c(SCc3ccccc3)cc12` (configuration not stated), the GI50 is 1.23 µM and the TGI turned out to be 2.57 µM.
In the case of `N=c1c2c(=O)n3c(nc2nc2sc4ccc(Cl)cc4n12)-c1ccccc1Sc1ccccc1-3`, the GI50 was 2.67 µM and the TGI worked out at 12.4 µM.
The like results for `CCN1CCN(Cc2ccc3cc(C(=O)Nc4cc(NC(=O)c5ccc6c(c5)OCCO6)ccc4F)ccc3n2)CC1` were, in that order, 0.0335 µM and 0.181 µM.
The like results for `Cc1cc(Cl)ccc1Nc1nc(C(F)(F)F)ccc1C(=O)N/N=C/c1c(Cl)cccc1Cl` were, in that order, 0.274 µM and 0.842 µM.
Turning to `O=CNc1ccc2c(c1)Cc1cc([N+](=O)[O-])ccc1-2`, the GI50 was 1.88 µM and the TGI was above 100 µM.
In the same order, the values of `CCNCCNc1cc(C2CCCC2)c(C#N)c2nc3ccccc3n12` are 1.64 µM and 3.67 µM.
In the same order, the values of `CCCNNC(=O)c1ccc(CNC(=O)/C=C/c2ccccc2)cc1` are 0.311 µM and above 31.1 µM.
With `CC(=O)/C=C/c1ccc(N(C)Cc2ccc(C(C)(C)C)cc2)cc1`, the GI50 is 59.7 µM and the TGI was 215 µM.
The like results for `O=C1C=CC(=O)N1CCCCCCCCCCN1C(=O)C=CC1=O` were, in that order, 3.22 µM and 14 µM.
For `O=C(Nc1cccc(-n2cc(-c3ccncc3)c(-c3ccc(O)c(Cl)c3)n2)c1)Nc1ccc(Cl)c(C(F)(F)F)c1`, the GI50 was 2.19 µM and the TGI is 6.84 µM.
In the same order, the values of `CN(C)CCOc1cccc(NC2=C(Cl)C(=O)C(Nc3cccc(OCCN(C)C)c3)=C(Cl)C2=O)c1` are 0.181 µM and 0.358 µM.
The like results for `CCOCC[P+](c1ccccc1)(c1ccccc1)c1ccccc1` were, in that order, 2.62 µM and 24.9 µM.
In the same order, the values of `Clc1cccc(Cc2cn3cc(-c4ccccc4)nc3s2)c1` are 4.45 µM and above 100 µM.
Take `COC(=O)c1cccc(NC2=C(Cl)C(=O)c3nc(C)ccc3C2=O)c1`: the GI50 was 1.61 µM and the TGI was 3.28 µM.
The like results for `COc1cc(C2c3cc4c(cc3OC(O)C2C)OCO4)cc(OC)c1O` (configuration not stated) were, in that order, 10.6 µM and above 100 µM.
On to `Cc1cc(Cl)ccc1Nc1nc(C(F)(F)F)ccc1C(=O)N/N=C/c1ccc(F)cc1`, for which the GI50 is 0.706 µM and the TGI was 3.26 µM.
`COC(C(=O)[C@@H](O)[C@@H](C)O)[C@@H]1Cc2cc3cc(O[C@H]4C[C@@H](O[C@H]5C[C@@H](O)[C@H](O)C(C)O5)[C@H](O)C(C)O4)c(C)c(O)c3c(O)c2C(=O)[C@H]1O[C@H]1C[C@@H](O[C@H]2C[C@@H](O[C@H]3C[C@@H](O)[C@@H](O)C(C)O3)[C@@H](O)C(C)O2)[C@H](O)C(C)O1` (some centres not stated): the GI50 was 0.396 µM and the TGI came to 4.09 µM.
The like results for `Cc1ccc(S(=O)(=O)C2=C3C(=C(c4ccccc4)c4ccccc43)CN(S(=O)(=O)c3ccc(C)cc3)C2)cc1` were, in that order, 5.01 µM and 40.6 µM.
For `O=C(Nc1ncc(Cc2ccc(Cl)cc2)s1)c1ccc2c(c1)OCCO2`, the GI50 was 0.258 µM.
As for `Cc1ccc(C2CC(c3cccc(Nc4ccncc4)c3)=NN2c2ccc(Cl)cc2)cc1` (configuration not stated), the GI50 was 1.67 µM and the TGI is 3.25 µM.
For `Cn1cc(C2=C(c3cccc(NCC(O)CO)c3)C(=O)NC2=O)c2cc(Cl)ccc21` (configuration not stated), the GI50 was 2.11 µM and the TGI stood at 8.43 µM.
As for `CC(C)CC1NC(=O)C(CCCN)NC(=O)C(C(C)C)NC(=O)C2CCCN2C(=O)C(Cc2ccccc2)NC(=O)C(CC(C)C)NC(=O)C(CCCN)NC(=O)C(C(C)C)NC(=O)C2CCCN2C(=O)C(Cc2ccccc2)NC1=O` (configuration not stated) (cyclo(FPV[Orn]LFPV[Orn]L); configuration not given here), the GI50 was 0.00394 µM; the TGI was 0.0222 µM and 0.0268 µM.
On to `C#Cc1ccc(-n2c(/C=C/c3ccc4ccccc4n3)nc3ncccc3c2=O)cc1`, for which the GI50 was 0.232 µM and the TGI was 0.894 µM.
In the same order, the values of `CCN1C(=O)N(CC)C2C1NN=C1SC(c3ccccc3)=CC(=O)N12` (configuration not stated) are 0.231 µM and 0.867 µM.
The like results for `NNc1nc(-c2ccccn2)nc2sc3c(c12)CCCCCC3` were, in that order, 3.67 µM and 31.7 µM.
The like results for `COc1ccc2oc(-c3ccc(Cl)cc3)c(N3CCN(C)CC3)c2c1` were, in that order, 1.66 µM and 4.31 µM.
As to `CCC1=C[C@H]2CN(CCc3c([nH]c4ccccc34)[C@@](C(=O)OC)(c3cc4c(cc3OC)N(C)[C@H]3[C@@](O)(C(=O)OC)[C@H](OC(C)=O)[C@]5(CC)[C@@H]6C[C@@H]6CN6CC[C@]43[C@@H]65)C2)C1`, the GI50 is 0.0145 µM and the TGI worked out at 6.59 µM.
In the same order, the values of `COc1ccc(-c2oncc2-c2cc(OC)c3c(c2)OCO3)cc1` are 1.35 µM and above 29.7 µM.
The like results for `Cc1cccc2c(=O)c3c(sc12)c(NCCN)nc1ccccc13` were, in that order, 0.7 µM and 1.58 µM.
